Tested on: not listed separately
Experiment: Bioavailability in Sprague-Dawley rat at 5 mg/kg, po
Assay type: ADME, organism-based
Conditions: in vivo
`COc1ccc(N(C(=O)Oc2c(C)cccc2C)c2ccnc(Nc3cc(OC)c(OCCCN4CCN(C)CC4)c(OC)c3)n2)c(OC)c1` gave a bioavailability of 6%.

Target: Tyrosine-protein kinase Lck (Homo sapiens, UniProt P06239)
Sequence (P06239 whole entry): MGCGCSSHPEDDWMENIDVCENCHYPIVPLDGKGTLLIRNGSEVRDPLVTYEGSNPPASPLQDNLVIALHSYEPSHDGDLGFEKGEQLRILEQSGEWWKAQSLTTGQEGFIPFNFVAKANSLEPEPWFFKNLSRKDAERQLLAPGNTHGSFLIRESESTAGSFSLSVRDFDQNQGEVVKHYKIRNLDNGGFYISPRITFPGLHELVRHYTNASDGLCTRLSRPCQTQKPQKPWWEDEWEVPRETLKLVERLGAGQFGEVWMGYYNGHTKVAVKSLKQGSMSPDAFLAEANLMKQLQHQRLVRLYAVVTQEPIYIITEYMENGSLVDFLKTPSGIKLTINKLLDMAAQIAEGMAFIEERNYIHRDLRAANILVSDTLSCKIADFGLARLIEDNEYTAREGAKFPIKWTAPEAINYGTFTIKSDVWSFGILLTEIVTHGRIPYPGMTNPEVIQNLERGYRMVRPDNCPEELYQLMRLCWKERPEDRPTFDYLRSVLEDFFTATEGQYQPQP
Conditions: not given
`COc1ccc(N(C(=O)Oc2c(C)cccc2C)c2ccnc(Nc3ccc(N4CCN(C)CC4)cc3)n2)c(OC)c1` gave an IC50 of 2 nM.
With `COc1ccc(N(C(=O)Oc2c(C)cccc2C)c2ccnc(Nc3ccc(OCCCN(C)C)cc3)n2)c(OC)c1` the IC50 was 1 nM.
`Cc1cccc(C)c1OC(=O)N(c1ccc2ccccc2c1)c1ccnc(Nc2ccc(N3CCN(C)CC3)cc2)n1` showed an IC50 of 10 nM.

Species: Homo sapiens
Experiment: Inhibition of anti-CD3/CD28-induced IL2 secretion in human whole blood T cell
Assay type: functional
Conditions: not given
`COc1ccc(N(C(=O)Oc2c(C)cccc2C)c2ccnc(Nc3cc(OC)c(OCCCN4CCN(C)CC4)c(OC)c3)n2)c(OC)c1` showed an IC50 of 3000 nM.

Tested on: T-cell
Experiment: Inhibition of anti-CD3/CD28-induced IL2 secretion in T cells stimulated with phorbol myristic acid and calcium ionophore
Assay type: functional, cell-based
Conditions: Homo sapiens
With `COc1ccc(N(C(=O)Oc2c(C)cccc2C)c2ccnc(Nc3cc(OC)c(OCCCN4CCN(C)CC4)c(OC)c3)n2)c(OC)c1` the IC50 was 1800 nM.

Tested on: Mus musculus
Experiment: Inhibition of anti-CD3-induced IL2 production in BALB/c mouse at 30 mg/kg, po
Assay type: functional
Conditions: not given
With `COc1ccc(N(C(=O)Oc2c(C)cccc2C)c2ccnc(Nc3cc(OC)c(OCCCN4CCN(C)CC4)c(OC)c3)n2)c(OC)c1` the inhibition in vivo at 30 mg/kg was 21%.

Target: Tyrosine-protein kinase SYK (Homo sapiens, UniProt P43405)
Experiment: Inhibition of Syk
Conditions: not given
With `COc1ccc(N(C(=O)Oc2c(C)cccc2C)c2ccnc(Nc3cc(OC)c(OCCCN4CCN(C)CC4)c(OC)c3)n2)c(OC)c1` the IC50 was 200 nM.

Tested on: not listed separately
Experiment: Protein binding in rat plasma
Assay type: ADME, cell-free
Conditions: read-out: PPB (converted)
For `COc1ccc(N(C(=O)Oc2c(C)cccc2C)c2ccnc(Nc3cc(OC)c(OCCCN4CCN(C)CC4)c(OC)c3)n2)c(OC)c1`, the fraction unbound was 0.016.

Tested on: Mus musculus
Experiment: Inhibition of anti-CD3-induced IL2 production in BALB/c mouse at 10 mg/kg, po
Assay type: functional
Conditions: not given
For `COc1ccc(N(C(=O)Oc2c(C)cccc2C)c2ccnc(Nc3cc(OC)c(OCCCN4CCN(C)CC4)c(OC)c3)n2)c(OC)c1`, the inhibition in vivo at 10 mg/kg was 11%.

Target: T1, Tyrosine-protein kinase JAK3 (Homo sapiens, UniProt P52333)
T1 sequence (P52333 whole entry): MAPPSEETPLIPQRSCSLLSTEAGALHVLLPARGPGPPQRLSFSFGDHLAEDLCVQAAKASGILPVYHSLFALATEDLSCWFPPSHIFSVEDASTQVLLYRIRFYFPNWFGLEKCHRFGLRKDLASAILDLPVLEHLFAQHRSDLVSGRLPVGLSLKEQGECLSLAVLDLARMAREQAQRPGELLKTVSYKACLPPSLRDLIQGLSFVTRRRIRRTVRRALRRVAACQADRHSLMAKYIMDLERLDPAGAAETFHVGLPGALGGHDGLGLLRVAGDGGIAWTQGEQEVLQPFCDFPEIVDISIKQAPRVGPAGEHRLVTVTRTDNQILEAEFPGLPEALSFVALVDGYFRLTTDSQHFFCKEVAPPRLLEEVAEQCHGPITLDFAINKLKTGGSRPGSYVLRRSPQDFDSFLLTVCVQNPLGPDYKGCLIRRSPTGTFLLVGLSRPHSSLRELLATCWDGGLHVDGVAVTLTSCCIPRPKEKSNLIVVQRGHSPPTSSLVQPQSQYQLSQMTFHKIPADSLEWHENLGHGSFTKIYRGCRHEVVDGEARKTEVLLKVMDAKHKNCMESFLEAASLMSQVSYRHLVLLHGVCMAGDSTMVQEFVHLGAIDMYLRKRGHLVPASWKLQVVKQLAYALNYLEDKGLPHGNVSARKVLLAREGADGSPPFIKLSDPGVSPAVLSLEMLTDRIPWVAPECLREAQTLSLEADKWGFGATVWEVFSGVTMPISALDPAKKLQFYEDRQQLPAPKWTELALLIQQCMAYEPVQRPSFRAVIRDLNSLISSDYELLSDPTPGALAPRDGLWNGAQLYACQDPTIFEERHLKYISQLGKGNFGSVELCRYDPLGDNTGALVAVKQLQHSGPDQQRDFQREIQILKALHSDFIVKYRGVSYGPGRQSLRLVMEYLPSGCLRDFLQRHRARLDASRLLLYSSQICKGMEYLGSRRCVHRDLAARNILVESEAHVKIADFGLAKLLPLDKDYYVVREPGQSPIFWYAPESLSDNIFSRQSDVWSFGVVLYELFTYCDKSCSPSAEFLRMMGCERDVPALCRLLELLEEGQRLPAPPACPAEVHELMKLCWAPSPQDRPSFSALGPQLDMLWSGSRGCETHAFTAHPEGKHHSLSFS
Conditions: not given
In the case of `COc1ccc(N(C(=O)Oc2c(C)cccc2C)c2ccnc(Nc3cc(OC)c(OCCCN4CCN(C)CC4)c(OC)c3)n2)c(OC)c1`, the IC50 is reported as 1200 nM.

Target: Mitogen-activated protein kinase 10 (Homo sapiens, UniProt P53779)
Sequence (P53779 whole entry): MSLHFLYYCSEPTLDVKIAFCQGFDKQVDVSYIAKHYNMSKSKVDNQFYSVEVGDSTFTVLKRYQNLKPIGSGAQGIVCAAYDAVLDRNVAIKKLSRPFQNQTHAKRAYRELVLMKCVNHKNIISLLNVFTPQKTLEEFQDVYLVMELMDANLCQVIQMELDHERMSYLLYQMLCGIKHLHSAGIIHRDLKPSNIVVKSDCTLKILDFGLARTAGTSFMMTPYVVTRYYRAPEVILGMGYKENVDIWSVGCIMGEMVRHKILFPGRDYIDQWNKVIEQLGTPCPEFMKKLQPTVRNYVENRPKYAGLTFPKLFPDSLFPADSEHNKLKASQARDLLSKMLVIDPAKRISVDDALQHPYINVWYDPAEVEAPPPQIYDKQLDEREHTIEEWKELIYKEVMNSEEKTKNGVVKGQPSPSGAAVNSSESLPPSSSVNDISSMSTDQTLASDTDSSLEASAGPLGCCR
Conditions: not given
With `COc1ccc(N(C(=O)Oc2c(C)cccc2C)c2ccnc(Nc3cc(OC)c(OCCCN4CCN(C)CC4)c(OC)c3)n2)c(OC)c1` the IC50 was over 5000 nM.

Tested on: not listed separately
Experiment: Volume of distribution in Sprague-Dawley rat at 1 mg/kg, iv
Assay type: ADME, organism-based
Set-up: dose 1 mg/kg, route intravenous
Conditions: in vivo, read-out: Vss
With `COc1ccc(N(C(=O)Oc2c(C)cccc2C)c2ccnc(Nc3cc(OC)c(OCCCN4CCN(C)CC4)c(OC)c3)n2)c(OC)c1` the Vd was 11.3 L/kg.

Target: Tyrosine-protein kinase JAK2 (Homo sapiens, UniProt O60674)
Conditions: not given
`COc1ccc(N(C(=O)Oc2c(C)cccc2C)c2ccnc(Nc3cc(OC)c(OCCCN4CCN(C)CC4)c(OC)c3)n2)c(OC)c1` gave an IC50 of 240 nM.

Target: Vascular endothelial growth factor receptor 2 (Homo sapiens, UniProt P35968)
Sequence (P35968 whole entry): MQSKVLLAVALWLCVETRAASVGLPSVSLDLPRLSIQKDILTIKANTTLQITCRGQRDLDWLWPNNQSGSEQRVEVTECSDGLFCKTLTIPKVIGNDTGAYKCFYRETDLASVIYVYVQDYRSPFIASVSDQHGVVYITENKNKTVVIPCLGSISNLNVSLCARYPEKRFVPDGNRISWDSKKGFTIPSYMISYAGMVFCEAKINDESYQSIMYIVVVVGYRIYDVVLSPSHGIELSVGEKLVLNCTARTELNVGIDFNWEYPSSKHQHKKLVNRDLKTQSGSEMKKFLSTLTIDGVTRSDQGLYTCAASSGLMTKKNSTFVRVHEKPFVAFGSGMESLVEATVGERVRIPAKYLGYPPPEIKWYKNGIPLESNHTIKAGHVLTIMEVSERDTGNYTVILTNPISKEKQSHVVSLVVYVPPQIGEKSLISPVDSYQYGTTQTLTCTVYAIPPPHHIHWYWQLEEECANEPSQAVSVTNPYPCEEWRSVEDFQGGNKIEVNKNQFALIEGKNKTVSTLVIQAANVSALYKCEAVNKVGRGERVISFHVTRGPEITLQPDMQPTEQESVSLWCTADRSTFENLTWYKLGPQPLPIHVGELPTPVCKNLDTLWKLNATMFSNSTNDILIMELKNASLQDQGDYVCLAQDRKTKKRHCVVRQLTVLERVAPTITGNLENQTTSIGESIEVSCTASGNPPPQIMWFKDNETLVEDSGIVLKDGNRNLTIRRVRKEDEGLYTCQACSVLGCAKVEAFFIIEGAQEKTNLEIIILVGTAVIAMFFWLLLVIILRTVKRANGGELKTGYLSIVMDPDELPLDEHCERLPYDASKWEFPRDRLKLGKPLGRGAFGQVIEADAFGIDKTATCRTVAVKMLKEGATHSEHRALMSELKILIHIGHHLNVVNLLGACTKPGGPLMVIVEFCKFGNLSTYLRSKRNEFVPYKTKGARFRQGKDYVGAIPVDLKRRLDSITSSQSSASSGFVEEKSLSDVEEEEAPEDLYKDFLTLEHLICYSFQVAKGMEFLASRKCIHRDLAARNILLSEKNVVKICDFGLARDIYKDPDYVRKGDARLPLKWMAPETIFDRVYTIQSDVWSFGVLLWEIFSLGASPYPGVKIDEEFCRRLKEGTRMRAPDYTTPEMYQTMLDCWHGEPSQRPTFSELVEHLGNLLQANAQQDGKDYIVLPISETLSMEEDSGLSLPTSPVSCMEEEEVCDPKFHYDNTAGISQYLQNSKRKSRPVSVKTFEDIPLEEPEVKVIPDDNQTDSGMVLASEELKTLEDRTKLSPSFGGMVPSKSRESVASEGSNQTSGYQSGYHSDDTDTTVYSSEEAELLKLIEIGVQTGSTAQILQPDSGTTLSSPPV
Conditions: not given
`COc1ccc(N(C(=O)Oc2c(C)cccc2C)c2ccnc(Nc3ccc(N4CCN(C)CC4)cc3)n2)c(OC)c1` showed an IC50 of 640 nM.
With `COc1ccc(N(C(=O)Oc2c(C)cccc2C)c2ccnc(Nc3ccc(OCCCN(C)C)cc3)n2)c(OC)c1` the IC50 was 230 nM.
For `Cc1cccc(C)c1OC(=O)N(c1ccc2ccccc2c1)c1ccnc(Nc2ccc(N3CCN(C)CC3)cc2)n1`, the IC50 was 130 nM.

Target: Cyclin-dependent kinase 2 (Homo sapiens, UniProt P24941)
Experiment: Inhibition of CDK2
Conditions: not given
Work on `COc1ccc(N(C(=O)Oc2c(C)cccc2C)c2ccnc(Nc3cc(OC)c(OCCCN4CCN(C)CC4)c(OC)c3)n2)c(OC)c1` yielded an IC50 of over 40000 nM.

Tested on: not listed separately
Experiment: AUC (0-infinity) in Sprague-Dawley rat at 5 mg/kg, po
Assay type: ADME, organism-based
Set-up: time infinity, dose 5 mg/kg, route oral
Conditions: plasma
`COc1ccc(N(C(=O)Oc2c(C)cccc2C)c2ccnc(Nc3cc(OC)c(OCCCN4CCN(C)CC4)c(OC)c3)n2)c(OC)c1` showed an AUC(0-inf) of 175 ng·h/mL.

Tested on: not listed separately
Experiment: Clearance in Sprague-Dawley rat at 1 mg/kg, iv
Assay type: ADME, organism-based
Set-up: dose 1 mg/kg, route intravenous
Conditions: in vivo
Compound `COc1ccc(N(C(=O)Oc2c(C)cccc2C)c2ccnc(Nc3cc(OC)c(OCCCN4CCN(C)CC4)c(OC)c3)n2)c(OC)c1` has a clearance of 30.5 mL/min/kg.

Tested on: Mus musculus
Experiment: Inhibition of anti-CD3-induced IL2 production in BALB/c mouse at 100 mg/kg, po
Assay type: functional
Conditions: not given
Compound `COc1ccc(N(C(=O)Oc2c(C)cccc2C)c2ccnc(Nc3cc(OC)c(OCCCN4CCN(C)CC4)c(OC)c3)n2)c(OC)c1` has an inhibition in vivo at 100 mg/kg of 60%.

Target: Proto-oncogene tyrosine-protein kinase Src (Homo sapiens, UniProt P12931)
Sequence (P12931 2-536 limits assumed): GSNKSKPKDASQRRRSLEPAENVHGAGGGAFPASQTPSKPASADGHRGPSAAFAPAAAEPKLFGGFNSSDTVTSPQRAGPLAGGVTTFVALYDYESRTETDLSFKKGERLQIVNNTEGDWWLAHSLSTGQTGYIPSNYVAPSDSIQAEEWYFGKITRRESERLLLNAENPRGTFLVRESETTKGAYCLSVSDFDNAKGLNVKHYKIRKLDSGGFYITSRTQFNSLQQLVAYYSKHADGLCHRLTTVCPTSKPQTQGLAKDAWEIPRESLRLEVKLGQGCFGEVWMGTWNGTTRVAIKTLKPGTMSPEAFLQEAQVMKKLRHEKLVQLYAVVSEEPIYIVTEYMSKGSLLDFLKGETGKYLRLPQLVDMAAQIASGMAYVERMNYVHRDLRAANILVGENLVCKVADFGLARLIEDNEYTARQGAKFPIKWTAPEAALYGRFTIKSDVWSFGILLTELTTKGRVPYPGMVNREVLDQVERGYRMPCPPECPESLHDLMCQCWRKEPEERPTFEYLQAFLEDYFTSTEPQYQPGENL
Experiment: Inhibition of Src
Conditions: not given
`COc1ccc(N(C(=O)Oc2c(C)cccc2C)c2ccnc(Nc3ccc(N4CCN(C)CC4)cc3)n2)c(OC)c1` gave an IC50 of 6 nM.
`COc1ccc(N(C(=O)Oc2c(C)cccc2C)c2ccnc(Nc3ccc(OCCCN(C)C)cc3)n2)c(OC)c1` gave an IC50 of 4 nM.
Work on `Cc1cccc(C)c1OC(=O)N(c1ccc2ccccc2c1)c1ccnc(Nc2ccc(N3CCN(C)CC3)cc2)n1` yielded an IC50 of 14 nM.
Work on `COc1ccc(N(C(=O)Oc2c(C)cccc2C)c2ccnc(Nc3cc(OC)c(OCCCN4CCN(C)CC4)c(OC)c3)n2)c(OC)c1` yielded an IC50 of 1 nM.

Target: Tyrosine-protein kinase BTK (Homo sapiens, UniProt Q06187)
Sequence (Q06187 whole entry): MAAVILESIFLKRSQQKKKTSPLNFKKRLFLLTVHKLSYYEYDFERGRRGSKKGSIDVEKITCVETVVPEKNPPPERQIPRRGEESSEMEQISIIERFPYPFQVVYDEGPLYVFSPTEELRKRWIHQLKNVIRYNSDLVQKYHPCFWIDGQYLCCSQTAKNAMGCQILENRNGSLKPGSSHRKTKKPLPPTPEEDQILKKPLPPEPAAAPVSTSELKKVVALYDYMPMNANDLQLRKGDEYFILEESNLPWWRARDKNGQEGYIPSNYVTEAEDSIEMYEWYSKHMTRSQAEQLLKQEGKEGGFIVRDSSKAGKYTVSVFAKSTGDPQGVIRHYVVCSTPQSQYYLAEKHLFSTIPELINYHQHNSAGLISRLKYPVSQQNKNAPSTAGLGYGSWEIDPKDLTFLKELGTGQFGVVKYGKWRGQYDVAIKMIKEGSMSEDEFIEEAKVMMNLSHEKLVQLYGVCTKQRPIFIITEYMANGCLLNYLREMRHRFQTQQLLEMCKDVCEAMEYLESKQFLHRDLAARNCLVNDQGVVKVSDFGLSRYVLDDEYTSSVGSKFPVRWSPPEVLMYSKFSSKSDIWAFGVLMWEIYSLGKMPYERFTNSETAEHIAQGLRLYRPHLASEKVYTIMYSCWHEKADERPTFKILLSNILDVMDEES
Conditions: not given
Compound `COc1ccc(N(C(=O)Oc2c(C)cccc2C)c2ccnc(Nc3cc(OC)c(OCCCN4CCN(C)CC4)c(OC)c3)n2)c(OC)c1` has an IC50 of 100 nM.

Tested on: Jurkat
Experiment: Antiproliferative activity against Jurkat cells
Assay type: functional, cell-based
Conditions: Homo sapiens
`COc1ccc(N(C(=O)Oc2c(C)cccc2C)c2ccnc(Nc3cc(OC)c(OCCCN4CCN(C)CC4)c(OC)c3)n2)c(OC)c1` gave an IC50 of 1700 nM.

Target: Mitogen-activated protein kinase 14 (Homo sapiens, UniProt Q16539)
Sequence (Q16539 whole entry): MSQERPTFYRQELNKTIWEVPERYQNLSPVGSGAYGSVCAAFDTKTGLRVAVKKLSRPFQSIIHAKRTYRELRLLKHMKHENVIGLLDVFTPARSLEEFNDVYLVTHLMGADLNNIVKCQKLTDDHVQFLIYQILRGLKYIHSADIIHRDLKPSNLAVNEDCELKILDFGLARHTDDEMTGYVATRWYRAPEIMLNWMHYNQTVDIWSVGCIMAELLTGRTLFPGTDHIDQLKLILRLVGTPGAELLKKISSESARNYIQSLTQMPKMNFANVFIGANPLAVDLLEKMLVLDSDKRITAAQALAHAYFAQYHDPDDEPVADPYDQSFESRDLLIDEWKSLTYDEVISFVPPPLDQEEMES
Experiment: Inhibition of p38alpha
Conditions: not given
`COc1ccc(N(C(=O)Oc2c(C)cccc2C)c2ccnc(Nc3ccc(N4CCN(C)CC4)cc3)n2)c(OC)c1` gave an IC50 of 1300 nM.
For `COc1ccc(N(C(=O)Oc2c(C)cccc2C)c2ccnc(Nc3ccc(OCCCN(C)C)cc3)n2)c(OC)c1`, the IC50 was 2100 nM.
`Cc1cccc(C)c1OC(=O)N(c1ccc2ccccc2c1)c1ccnc(Nc2ccc(N3CCN(C)CC3)cc2)n1` gave an IC50 of 740 nM.
Work on `COc1ccc(N(C(=O)Oc2c(C)cccc2C)c2ccnc(Nc3cc(OC)c(OCCCN4CCN(C)CC4)c(OC)c3)n2)c(OC)c1` yielded an IC50 of 530 nM.

Tested on: T-cell
Experiment: Inhibition of anti-CD3/CD28-induced IL2 secretion in human T cells
Assay type: functional, cell-based
Conditions: not given
Compound `COc1ccc(N(C(=O)Oc2c(C)cccc2C)c2ccnc(Nc3ccc(N4CCN(C)CC4)cc3)n2)c(OC)c1` has an IC50 of 1900 nM.
For `COc1ccc(N(C(=O)Oc2c(C)cccc2C)c2ccnc(Nc3ccc(OCCCN(C)C)cc3)n2)c(OC)c1`, the IC50 was 230 nM.
`COc1ccc(N(C(=O)Oc2c(C)cccc2C)c2ccnc(Nc3cc(OC)c(OCCCN4CCN(C)CC4)c(OC)c3)n2)c(OC)c1` gave an IC50 of 61 nM.

Tested on: not listed separately
Experiment: Half life in Sprague-Dawley rat at 1 mg/kg, iv
Assay type: ADME, organism-based
Set-up: dose 1 mg/kg, route intravenous
Conditions: in vivo
`COc1ccc(N(C(=O)Oc2c(C)cccc2C)c2ccnc(Nc3cc(OC)c(OCCCN4CCN(C)CC4)c(OC)c3)n2)c(OC)c1` gave a half-life of 4.6 h.

Tested on: not listed separately
Experiment: Protein binding in human plasma
Assay type: ADME, cell-free
Conditions: read-out: PPB (converted)
For `COc1ccc(N(C(=O)Oc2c(C)cccc2C)c2ccnc(Nc3cc(OC)c(OCCCN4CCN(C)CC4)c(OC)c3)n2)c(OC)c1`, the fraction unbound was 0.013.

Target: Protein kinase C theta type (Homo sapiens, UniProt Q04759)
Sequence (Q04759 whole entry): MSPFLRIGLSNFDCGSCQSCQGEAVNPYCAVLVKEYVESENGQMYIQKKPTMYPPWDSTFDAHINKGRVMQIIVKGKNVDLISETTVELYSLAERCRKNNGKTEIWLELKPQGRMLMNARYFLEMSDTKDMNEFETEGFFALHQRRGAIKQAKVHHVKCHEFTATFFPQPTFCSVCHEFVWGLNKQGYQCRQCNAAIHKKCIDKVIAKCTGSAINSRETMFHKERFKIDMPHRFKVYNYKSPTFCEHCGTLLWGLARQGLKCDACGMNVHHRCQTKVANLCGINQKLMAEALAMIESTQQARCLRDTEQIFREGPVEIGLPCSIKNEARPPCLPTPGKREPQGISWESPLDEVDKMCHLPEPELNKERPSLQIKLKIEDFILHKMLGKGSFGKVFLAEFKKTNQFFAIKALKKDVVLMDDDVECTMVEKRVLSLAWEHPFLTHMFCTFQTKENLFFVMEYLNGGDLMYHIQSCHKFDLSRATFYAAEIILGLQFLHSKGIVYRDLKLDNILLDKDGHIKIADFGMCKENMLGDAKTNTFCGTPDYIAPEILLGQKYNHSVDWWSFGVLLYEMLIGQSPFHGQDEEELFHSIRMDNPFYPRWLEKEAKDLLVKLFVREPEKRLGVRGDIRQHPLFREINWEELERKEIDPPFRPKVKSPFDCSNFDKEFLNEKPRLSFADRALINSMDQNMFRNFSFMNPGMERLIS
Experiment: Inhibition of PKCtheta
Conditions: not given
With `COc1ccc(N(C(=O)Oc2c(C)cccc2C)c2ccnc(Nc3cc(OC)c(OCCCN4CCN(C)CC4)c(OC)c3)n2)c(OC)c1` the IC50 was over 5000 nM.

Tested on: T-cell
Experiment: Inhibition of T cell receptor zeta chain phosphorylation
Assay type: functional, cell-based
Conditions: Homo sapiens
For `COc1ccc(N(C(=O)Oc2c(C)cccc2C)c2ccnc(Nc3cc(OC)c(OCCCN4CCN(C)CC4)c(OC)c3)n2)c(OC)c1`, the IC50 was 780 nM.

Tested on: T-cell
Experiment: Inhibition of anti-CD3/CD28-induced T cell proliferation
Assay type: functional, cell-based
Conditions: Homo sapiens
For `COc1ccc(N(C(=O)Oc2c(C)cccc2C)c2ccnc(Nc3cc(OC)c(OCCCN4CCN(C)CC4)c(OC)c3)n2)c(OC)c1`, the IC50 was 490 nM.

Target: Insulin-like growth factor 1 receptor (Homo sapiens, UniProt P08069)
Conditions: not given
`COc1ccc(N(C(=O)Oc2c(C)cccc2C)c2ccnc(Nc3cc(OC)c(OCCCN4CCN(C)CC4)c(OC)c3)n2)c(OC)c1` showed an IC50 of over 25000 nM.

Tested on: not listed separately
Experiment: AUC (0-infinity) in Sprague-Dawley rat at 1 mg/kg, iv
Assay type: ADME, organism-based
Set-up: time infinity, dose 1 mg/kg, route intravenous
Conditions: plasma
Work on `COc1ccc(N(C(=O)Oc2c(C)cccc2C)c2ccnc(Nc3cc(OC)c(OCCCN4CCN(C)CC4)c(OC)c3)n2)c(OC)c1` yielded an AUC(0-inf) of 568 ng·h/mL.

Tested on: not listed separately
Experiment: Cmax in Sprague-Dawley rat at 5 mg/kg, po
Assay type: ADME, organism-based
Set-up: dose 5 mg/kg, route oral
Conditions: in vivo
In the case of `COc1ccc(N(C(=O)Oc2c(C)cccc2C)c2ccnc(Nc3cc(OC)c(OCCCN4CCN(C)CC4)c(OC)c3)n2)c(OC)c1`, the Cmax is reported as 22 ng/mL.

Tested on: not listed separately
Experiment: Tmax in Sprague-Dawley rat at 5 mg/kg, po
Assay type: ADME, organism-based
Set-up: dose 5 mg/kg, route oral
Conditions: in vivo
In the case of `COc1ccc(N(C(=O)Oc2c(C)cccc2C)c2ccnc(Nc3cc(OC)c(OCCCN4CCN(C)CC4)c(OC)c3)n2)c(OC)c1`, the Tmax is reported as 4 h.

Source: ChEMBL document CHEMBL1145338, “Novel 2-aminopyrimidine carbamates as potent and orally active inhibitors of Lck: synthesis, SAR, and in vivo antiinflammatory activity” (J Med Chem, 2006)
